Measured values published in patent US20110224226A1, “COMPOSITIONS AND METHODS FOR INCREASING BLOOD PLATELET LEVELS IN HUMANS” (AKARX, Inc., priority 2006, published 2011).
Read-outs that look alike come from different tables or passages of the source.

Legend:
[1] = in-vitro plasma protein binding, rabbits; format: in vitro ADME; details: rabbit, 0.05 to 50 μg/mL
Procedure: The in-vitro plasma protein binding of the drug of Formula I was independent of concentration over the concentration range of 0.05 to 50 μg/mL and was 87.2-89.1% in mice; 87.6-89.2% in rats; 88.3-92.0% in rabbits; […] in dogs; 97.0-97.6% in monkeys; and 96.3-96.6% in humans.

[2] = pharmacokinetics after intravenous and oral administration in dogs; format: in vivo; details: dog, plasma
Excerpt: After a single intravenous administration of the drug of Formula I as the monomaleate salt to mice and dogs, plasma concentrations of Formula I decreased in a biphasic manner.

[3] = Example 1 single dose study: safety; format: in vivo, human; details: single dose up to 100 mg, healthy volunteers
Procedure: A single-center, randomized, double-blind, dose-rising study to determine the safety, pharmacokinetics, and pharmacodynamics of single doses of 1-(3-chloro-5-{[4-(4-chlorothiophen-2-yl)-5-(4-cyclohexylpiperazin-1-yl)thiazol-2-yl]carbamoyl} pyridin-2-yl)piperadine-4-carboxylic acid (Formula I) in normal healthy volunteers was performed. The starting dose of the drug of Formula I was 1 mg (expressed as free base). Successive dose cohorts received 3, 10, 20, 50, 75 and 100 mg. The drug substance in the form of the monomaleate salt was suspended in Ora-Plus® (purified water, microcrystalline cellulose, sodium carboxymethylcellulose, xanthan gum, citric acid, sodium phosphate, simethicone, potassium sorbate and methylparaben), a commercially available oral suspending vehicle manufactured by Paddock Laboratories, Inc. Minneapolis, Minn. The Ora-Plus® was diluted with purified water, USP in a 1:1 suspension before being used to suspend the drug substance powder in preparation for oral administration. Prior to administration, 30 mL of the Ora-Plus®/water vehicle was added to each bottle, shaken and then consumed by the subject for each of the 3, 10, 50 and 75 mg dose cohorts. This was followed by an additional 30 mL of vehicle that was added to the bottle as a wash solution, shaken and then consumed by the subject. […]

[4] = Example 1 single dose study: pharmacokinetics; format: in vivo, human; details: for Cmax / half-life / AUC(0-inf) / AUC(0-t) / AUC / Tmax: both sexes, human; for Tmax: read-out: mean time to maximum plasma concentration (Tmax)
Procedure: A single-center, randomized, double-blind, dose-rising study to determine the safety, pharmacokinetics, and pharmacodynamics of single doses of 1-(3-chloro-5-{[4-(4-chlorothiophen-2-yl)-5-(4-cyclohexylpiperazin-1-yl)thiazol-2-yl]carbamoyl} pyridin-2-yl)piperadine-4-carboxylic acid (Formula I) in normal healthy volunteers was performed. The starting dose of the drug of Formula I was 1 mg (expressed as free base). Successive dose cohorts received 3, 10, 20, 50, 75 and 100 mg. The drug substance in the form of the monomaleate salt was suspended in Ora-Plus® (purified water, microcrystalline cellulose, sodium carboxymethylcellulose, xanthan gum, citric acid, sodium phosphate, simethicone, potassium sorbate and methylparaben), a commercially available oral suspending vehicle manufactured by Paddock Laboratories, Inc. Minneapolis, Minn. The Ora-Plus® was diluted with purified water, USP in a 1:1 suspension before being used to suspend the drug substance powder in preparation for oral administration. Prior to administration, 30 mL of the Ora-Plus®/water vehicle was added to each bottle, shaken and then consumed by the subject for each of the 3, 10, 50 and 75 mg dose cohorts. This was followed by an additional 30 mL of vehicle that was added to the bottle as a wash solution, shaken and then consumed by the subject. For the 20 mg and 100 mg dose cohorts, 60 mL of the Ora-Plus®/water vehicle was added to two (2) separate bottles containing the appropriate dose of drug (30 mL each bottle), shaken then consumed by the subjects. This was followed by an additional 60 mL of vehicle that was added as 30 ml to each bottle as a wash solution, shaken and then consumed by the subject.
A minimum of 9 subjects (male and female healthy volunteers) were enrolled in each cohort. The active group within each cohort included male and female volunteers. Three subjects per cohort received placebo. Each successive dose cohort was treated no sooner than 10 days after the previous group had received the study drug. […] Each subject received only 1 dose of Formula I. Intra-subject dose escalation and treating previously treated subjects in any cohort expansions were not allowed. All subjects were followed until their platelet count returned to normal levels (defined as ±20% of baseline).
Dose escalation was stopped if the PD limiting dose was reached or at the dose at which a dose limiting toxicity (DLT) was observed. The pharmacodynamic limit (PD limit) is defined as the dose at which there was a 50% increase in platelet count relative to the […] in the 6 actively treated subjects. The pharmacodynamic limiting dose (if reached), was repeated by running an additional cohort of 9 subjects (3 placebo and 6 active) at the dose level of the observed PD limit.
Pharmacokinetic sampling was taken. Pharmacodynamic evaluations of platelet counts and other hematological parameters were performed from study drug administration (Day 1) until 7 days after dosing. Outpatient follow-up for safety evaluation occurred until 14 days post-treatment for all subjects and longer for subjects requiring additional follow-up. For the repeat PD dose cohort or 100 mg dose cohort, the evaluations of platelet counts and other hematological parameters were performed each day from Day 1 through 14 and then every other day up to Day 28. If the PD dose limit was not reached at a dose of 75 mg, platelet count evaluations as outlined for the PD limiting dose were performed on the 100 mg dose cohort.

2C9 = 2C9 (Homo sapiens, UniProt P11712); assay: inhibition of human liver cytochrome P450 2C9; format: in vitro ADME; details: human liver cytochrome P450 isoenzyme
Sequence of 2C9 (P11712 whole entry): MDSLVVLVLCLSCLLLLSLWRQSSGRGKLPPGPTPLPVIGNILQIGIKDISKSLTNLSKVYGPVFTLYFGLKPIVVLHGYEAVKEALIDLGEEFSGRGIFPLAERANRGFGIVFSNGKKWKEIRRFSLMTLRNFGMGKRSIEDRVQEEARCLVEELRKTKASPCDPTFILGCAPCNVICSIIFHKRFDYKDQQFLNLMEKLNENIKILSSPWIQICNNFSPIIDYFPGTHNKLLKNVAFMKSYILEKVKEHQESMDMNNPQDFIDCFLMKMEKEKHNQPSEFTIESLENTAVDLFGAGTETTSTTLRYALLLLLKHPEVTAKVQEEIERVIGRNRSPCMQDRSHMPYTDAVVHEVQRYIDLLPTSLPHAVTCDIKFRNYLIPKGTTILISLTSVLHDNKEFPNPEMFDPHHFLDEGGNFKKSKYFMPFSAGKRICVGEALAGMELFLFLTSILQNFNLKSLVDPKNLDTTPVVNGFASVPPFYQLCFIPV

## O=C(Nc1nc(-c2cc(Cl)cs2)c(N2CCN(C3CCCCC3)CC2)s1)c1cnc(N2CCC(C(=O)O)CC2)c(Cl)c1 [Formula I, 1-(3-chloro-5-{[4-(4-chlorothiophen-2-yl)-5-(4-cyclohexylpiperazin-1-yl)thiazol-2-yl]carbamoyl}pyridin-2-yl)piperadine-4-carboxylic acid]
[1]
  fraction unbound: 0.08 to 0.117
[2]; dogs, single intravenous administration as the monomaleate salt, read-out: terminal elimination half-life (t1/2) (converted)
  half-life: 2.7 h
[2]; oral administration, read-out: absolute bioavailability
  bioavailability: 52%
[3]
  tolerability (drug-related clinical or laboratory adverse experiences): well tolerated
[4]; plasma, oral, 1 mg, single 1 mg daily dose, read-out: mean maximum plasma concentration (Cmax)
  Cmax: ~5.7 ng/mL
[4]; plasma, oral, 3 mg, single 3 mg daily dose, read-out: mean maximum plasma concentration (Cmax)
  Cmax: 14 to 17 ng/mL
[4]; plasma, oral, 10 mg, single 10 mg daily dose, (±20%), read-out: mean maximum plasma concentration (Cmax)
  Cmax: 53 to 69 ng/mL
[4]; plasma, oral, 20 mg, single 20 mg daily dose, read-out: mean maximum plasma concentration (Cmax)
  Cmax: 121 to 168 ng/mL
[4]; plasma, oral, 50 mg, single 50 mg daily dose, read-out: mean maximum plasma concentration (Cmax)
  Cmax: ~311 ng/mL
[4]; plasma, oral, 75 mg, single 75 mg daily dose, read-out: mean maximum plasma concentration (Cmax)
  Cmax: ~473 ng/mL
[4]; plasma, oral, 100 mg, 100 mg daily dose, read-out: mean maximum plasma concentration (Cmax)
  Cmax: ~388 ng/mL
[4]; plasma, po, 1 mg, single oral dose 1 mg, healthy volunteers, final mean, read-out: Cmax
  Cmax: 5.67 ng/mL
[4]; plasma, po, 1 mg, single oral dose 1 mg, healthy volunteers, final mean, read-out: T½ (converted)
  half-life: 21.5 h
[4]; plasma, po, 1 mg, single oral dose 1 mg, healthy volunteers, preliminary mean, read-out: Cmax
  Cmax: 5.15 ng/mL
[4]; plasma, po, 1 mg, single oral dose 1 mg, healthy volunteers, preliminary mean, read-out: T½ (converted)
  half-life: 18.9 h
[4]; plasma, po, 3 mg, single oral dose 3 mg, healthy volunteers, preliminary mean, read-out: Cmax
  Cmax: 16 ng/mL
[4]; plasma, po, 3 mg, single oral dose 3 mg, healthy volunteers, preliminary mean, read-out: T½ (converted)
  half-life: 17.5 h
[4]; plasma, po, 10 mg, single oral dose 10 mg, healthy volunteers, preliminary mean, read-out: Cmax
  Cmax: 63.6 ng/mL
[4]; plasma, po, 10 mg, single oral dose 10 mg, healthy volunteers, preliminary mean, read-out: T½ (converted)
  half-life: 18 h
[4]; plasma, po, 20 mg, single oral dose 20 mg, healthy volunteers, preliminary mean, read-out: Cmax
  Cmax: 146 ng/mL
[4]; plasma, po, 20 mg, single oral dose 20 mg, healthy volunteers, preliminary mean, read-out: T½ (converted)
  half-life: 12.9 h
[4]; plasma, po, 50 mg, single oral dose 50 mg, healthy volunteers, final mean, read-out: Cmax
  Cmax: 312 ng/mL
[4]; plasma, po, 50 mg, single oral dose 50 mg, healthy volunteers, final mean, read-out: T½ (converted)
  half-life: 19 h
[4]; plasma, po, 50 mg, single oral dose 50 mg, healthy volunteers, preliminary mean, read-out: Cmax
  Cmax: 294 ng/mL
[4]; plasma, po, 50 mg, single oral dose 50 mg, healthy volunteers, preliminary mean, read-out: T½ (converted)
  half-life: 14.8 h
[4]; plasma, po, 75 mg, single oral dose 75 mg, healthy volunteers, final mean, read-out: Cmax
  Cmax: 474 ng/mL
[4]; plasma, po, 75 mg, single oral dose 75 mg, healthy volunteers, final mean, read-out: T½ (converted)
  half-life: 18.8 h
[4]; plasma, po, 75 mg, single oral dose 75 mg, healthy volunteers, preliminary mean, read-out: Cmax
  Cmax: 446 ng/mL
[4]; plasma, po, 75 mg, single oral dose 75 mg, healthy volunteers, preliminary mean, read-out: T½ (converted)
  half-life: 15.3 h
[4]; plasma, po, 100 mg, single oral dose 100 mg, healthy volunteers, final mean, read-out: Cmax
  Cmax: 388 ng/mL
[4]; plasma, po, 100 mg, single oral dose 100 mg, healthy volunteers, final mean, read-out: T½ (converted)
  half-life: 18 h
[4]; plasma, po, 100 mg, single oral dose 100 mg, healthy volunteers, preliminary mean, read-out: Cmax
  Cmax: 365 ng/mL
[4]; plasma, po, 100 mg, single oral dose 100 mg, healthy volunteers, preliminary mean, read-out: T½ (converted)
  half-life: 15.8 h
[4]; plasma, single oral dose 1 mg, healthy volunteers, final mean
  AUC(0-inf): 183 ng·h/mL
[4]; plasma, single oral dose 1 mg, healthy volunteers, final mean, read-out: AUC0-last
  AUC(0-t): 130 ng·h/mL
[4]; plasma, single oral dose 1 mg, healthy volunteers, preliminary mean
  AUC: 161 ng·h/mL
[4]; plasma, single oral dose 3 mg, healthy volunteers, preliminary mean
  AUC: 477 ng·h/mL
[4]; plasma, single oral dose 10 mg, healthy volunteers, preliminary mean
  AUC: 2110 ng·h/mL
[4]; plasma, single oral dose 20 mg, healthy volunteers, preliminary mean
  AUC: 4020 ng·h/mL
[4]; plasma, single oral dose 50 mg, healthy volunteers, final mean
  AUC(0-inf): 8480 ng·h/mL
[4]; plasma, single oral dose 50 mg, healthy volunteers, final mean, read-out: AUC0-last
  AUC(0-t): 6880 ng·h/mL
[4]; plasma, single oral dose 50 mg, healthy volunteers, preliminary mean
  AUC: 9180 ng·h/mL
[4]; plasma, single oral dose 75 mg, healthy volunteers, final mean
  AUC(0-inf): 13500 ng·h/mL
[4]; plasma, single oral dose 75 mg, healthy volunteers, final mean, read-out: AUC0-last
  AUC(0-t): 10800 ng·h/mL
[4]; plasma, single oral dose 75 mg, healthy volunteers, preliminary mean
  AUC: 12600 ng·h/mL
[4]; plasma, single oral dose 100 mg, healthy volunteers, final mean
  AUC(0-inf): 11100 ng·h/mL
[4]; plasma, single oral dose 100 mg, healthy volunteers, final mean, read-out: AUC0-last
  AUC(0-t): 10900 ng·h/mL
[4]; plasma, single oral dose 100 mg, healthy volunteers, preliminary mean
  AUC: 10500 ng·h/mL
[4]; serum, oral, single dose 1 mg to 100 mg, independent of the dose, read-out: serum elimination half-life (mean t1/2)
  half-life: 18 to 24 h
[4]; serum, po, 3 mg, single oral dose 3 mg, healthy volunteers, final mean, read-out: Cmax
  Cmax: 17.1 ng/mL
[4]; serum, po, 3 mg, single oral dose 3 mg, healthy volunteers, final mean, read-out: T½ (converted)
  half-life: 23.6 h
[4]; serum, po, 10 mg, single oral dose 10 mg, healthy volunteers, final mean, read-out: Cmax
  Cmax: 69.1 ng/mL
[4]; serum, po, 10 mg, single oral dose 10 mg, healthy volunteers, final mean, read-out: T½ (converted)
  half-life: 21.8 h
[4]; serum, po, 20 mg, single oral dose 20 mg, healthy volunteers, final mean, read-out: Cmax
  Cmax: 169 ng/mL
[4]; serum, po, 20 mg, single oral dose 20 mg, healthy volunteers, final mean, read-out: T½ (converted)
  half-life: 18.9 h
[4]; serum, single oral dose 3 mg, healthy volunteers, final mean
  AUC(0-inf): 534 ng·h/mL
[4]; serum, single oral dose 3 mg, healthy volunteers, final mean, read-out: AUC0-last
  AUC(0-t): 401 ng·h/mL
[4]; serum, single oral dose 10 mg, healthy volunteers, final mean
  AUC(0-inf): 2380 ng·h/mL
[4]; serum, single oral dose 10 mg, healthy volunteers, final mean, read-out: AUC0-last
  AUC(0-t): 1650 ng·h/mL
[4]; serum, single oral dose 20 mg, healthy volunteers, final mean
  AUC(0-inf): 4440 ng·h/mL
[4]; serum, single oral dose 20 mg, healthy volunteers, final mean, read-out: AUC0-last
  AUC(0-t): 3600 ng·h/mL
[4]; plasma, oral, 100 mg daily dose, read-out: mean AUC0-last
  AUC(0-t): ~10900 ng·h/mL
[4]; plasma, oral, 100 mg daily dose
  Tmax: ~6.2 h
[4]; plasma, oral, single 1 mg daily dose, read-out: mean AUC0-last
  AUC(0-t): ~130 ng·h/mL
[4]; plasma, oral, single 1 mg daily dose
  Tmax: ~6.1 h
[4]; plasma, oral, single 3 mg daily dose, read-out: mean AUC0-last
  AUC(0-t): 235 to 400 ng·h/mL
[4]; plasma, oral, single 3 mg daily dose
  Tmax: ~5.5 h
[4]; plasma, oral, single 10 mg daily dose, read-out: mean AUC0-last
  AUC(0-t): 840 to 1640 ng·h/mL
[4]; plasma, oral, single 10 mg daily dose
  Tmax: 4.8 to 6 h
[4]; plasma, oral, single 20 mg daily dose, read-out: mean AUC0-last
  AUC(0-t): 1960 to 3600 ng·h/mL
[4]; plasma, oral, single 20 mg daily dose
  Tmax: ~5.2 h
[4]; plasma, oral, single 50 mg daily dose, read-out: mean AUC0-last
  AUC(0-t): ~6880 ng·h/mL
[4]; plasma, oral, single 50 mg daily dose
  Tmax: ~4.8 h
[4]; plasma, oral, single 75 mg daily dose, read-out: mean AUC0-last
  AUC(0-t): ~10800 ng·h/mL
[4]; plasma, oral, single 75 mg daily dose
  Tmax: ~6 h
[4]; single doses 1 to 100 mg, slightly lower than expected exposure at 100 mg
  dose proportionality of Cmax and AUC: increased proportionally up to the 75 mg dose
[4]; single oral dose, healthy volunteers
  lag time: 2 to 4 h
2C9
  inhibition of CYP2C9: did not inhibit
